Test results reported in US10899738B2 (THE REGENTS OF THE UNIVERSITY OF MICHIGAN, priority 2016, dated 2021).

Target: menin protein (Homo sapiens (Human), UniProt O00255)
Assay: biochemical
Assay type: binding
Settings: FP competitive binding; menin protein 4 nM, FAM-MM2 probe 2 nM; read-out: Menin Binding Affinity IC50
Experimental: A fluorescence polarization (FP) competitive binding assay was used to determine the binding affinities of representative menin inhibitors. A FAM labeled fluorescent probe was designed and synthesized based on a MLL1 peptide (FAM-MM2). Equilibrium dissociation constant (Kd) value of FAM-MM2 to menin protein was determined from protein saturation experiments by monitoring the total fluorescence polarization of mixtures composed with the fluorescent probe at a fixed concentration and the protein with increasing concentrations up to full saturation. Serial dilutions of the protein were mixed with FAM-MM2 to a final volume of 200 μl in the assay buffer (PBS with 0.02% Bovine γ-Globulin and 4% DMSO. 0.01% Triton X-100 was added right before assays). Final FAM-MM2 concentration was 2 nM. Plates were incubated at room temperature for 30 minutes with gentle shaking to assure equilibrium.
The IC50, see Table 3, and Ki values of representative Compounds of the Disclosure were determined in a competitive binding experiment. Mixtures of 5 μl of the tested compounds in DMSO and 195 μl of preincubated protein/probe complex solution in the assay buffer were added into assay plates which were incubated at room temperature for 30 minutes with gentle shaking. Final concentration of the menin protein was 4 nM, and final probe concentration is 2 nM. […] FP values were measured as described above. IC50 values were determined by nonlinear regression fitting of the competition curves.

Sequence of menin protein (O00255 whole entry): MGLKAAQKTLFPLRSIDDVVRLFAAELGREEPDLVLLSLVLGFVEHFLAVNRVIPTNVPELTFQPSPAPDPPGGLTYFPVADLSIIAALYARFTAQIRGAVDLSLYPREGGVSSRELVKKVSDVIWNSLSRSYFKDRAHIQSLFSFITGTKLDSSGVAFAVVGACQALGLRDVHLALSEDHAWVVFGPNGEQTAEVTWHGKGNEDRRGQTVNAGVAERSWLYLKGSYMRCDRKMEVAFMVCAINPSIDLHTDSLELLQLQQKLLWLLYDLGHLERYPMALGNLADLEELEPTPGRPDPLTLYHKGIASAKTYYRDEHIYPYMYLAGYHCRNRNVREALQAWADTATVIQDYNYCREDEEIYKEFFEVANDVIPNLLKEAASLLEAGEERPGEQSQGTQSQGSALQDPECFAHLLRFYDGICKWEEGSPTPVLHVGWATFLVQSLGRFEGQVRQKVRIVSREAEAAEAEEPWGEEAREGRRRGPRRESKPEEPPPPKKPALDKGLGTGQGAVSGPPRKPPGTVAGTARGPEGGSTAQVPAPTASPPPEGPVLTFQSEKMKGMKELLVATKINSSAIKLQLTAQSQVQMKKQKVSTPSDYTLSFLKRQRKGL

## CC(=O)O[C@@H]1CCC[C@H]1C(C#N)(c1ccccc1)C1CCN(CC2CN(c3ccc(S(=O)(=O)c4ccncc4)cc3)C2)CC1 (mixture of isomers) [compound 207, rac-(1R,2S)-2-(cyano(phenyl)(1-((1-(4-(pyridin-4-ylsulfonyl)phenyl)azetidin-3-yl)methyl)piperidin-4-yl)methyl)cyclopentyl acetate]
  IC50: 2800 nM

## N#CC(c1ccccc1)(C1CCN(CC2CN(c3ccc(S(=O)(=O)c4ccncc4)cc3)C2)CC1)[C@@H]1CCC[C@H]1OC(=O)C1CCC1 (mixture of isomers) [compound 208, rac-(1R,2S)-2-(cyano(phenyl)(1-((1-(4-(pyridin-4-ylsulfonyl)phenyl)azetidin-3-yl)methyl)piperidin-4-yl)methyl)cyclopentyl cyclobutanecarboxylate]
  IC50: 435 nM

## N#CC(c1ccccc1)(C1CCN(CC2CN(c3ccc(S(=O)(=O)c4ccncc4)cc3)C2)CC1)[C@H]1CCC[C@@H]1OC(=O)C1CCC1 (mixture of isomers) [compound 209, rac-(1S,2R)-2-(cyano(phenyl)(1-((1-(4-(pyridin-ylsulfonyl)phenyl)azetidin-3-yl)methyl)piperidin-4-yl)methyl)cyclopentyl cyclobutanecarboxylate]
  IC50: 111 nM

## N#CC(c1ccccc1)(C1CCN(CC2CN(c3ccc(S(=O)(=O)c4ccncc4)cc3)C2)CC1)[C@@H]1CCC[C@H]1OC(N)=O (mixture of isomers) [compound 212, rac-(1R,2S)-2-(cyano(phenyl)(1-((1-(4-(pyridin-4-ylsulfonyl)phenyl)azetidin-3-yl)methyl)piperidin-4-yl)methyl)cyclopentyl carbamate]
  IC50: 454 nM

## CCNC(=O)O[C@H]1CCC[C@@H]1C(C#N)(c1ccccc1)C1CCN(CC2CN(c3ccc(S(=O)(=O)c4ccncc4)cc3)C2)CC1 (mixture of isomers) [compound 213, rac-(1S,2R)-2-(cyano(phenyl)(1-((1-(4-(pyridin-4-ylsulfonyl)phenyl)azetidin-3-yl)methyl)piperidin-4-yl)methyl)cyclopentyl ethylcarbamate]
  IC50: 170 nM

## CCNC(=O)O[C@@H]1CCC[C@H]1C(C#N)(c1ccccc1)C1CCN(CC2CN(c3ccc(S(=O)(=O)c4ccncc4)cc3)C2)CC1 (mixture of isomers) [compound 214, rac-(1R,2S)-2-(cyano(phenyl)(1-((1-(4-(pyridin-4-ylsulfonyl)phenyl)azetidin-3-yl)methyl)piperidin-4-yl)methyl)cyclopentyl ethylcarbamate]
  IC50: 3400 nM

## CNC(=O)O[C@@H]1CCC[C@H]1C(C#N)(c1ccccc1)C1CCN(CC2CN(c3ccc(S(=O)(=O)c4ccncc4)cc3)C2)CC1 (mixture of isomers) [compound 216, rac-(1R,2S)-2-(cyano(phenyl)(1-((1-(4-(pyridin-4-ylsulfonyl)phenyl)azetidin-3-yl)methyl)piperidin-4-yl)methyl)cyclopentyl methylcarbamate]
  IC50: 396 nM

## CN(C)C(=O)O[C@H]1CCC[C@@H]1C(C#N)(c1ccccc1)C1CCN(CC2CN(c3ccc(S(=O)(=O)c4ccncc4)cc3)C2)CC1 (mixture of isomers) [compound 220, rac-(1S,2R)-2-(cyano(phenyl)(1-((1-(4-(pyridin-4-ylsulfonyl)phenyl)azetidin-3-yl)methyl)piperidin-4-yl)methyl)cyclopentyl dimethylcarbamate]
  IC50: 261 nM

## N#CC(c1ccccc1)(C1CCN(CC2CN(c3ccc(S(=O)(=O)c4ccncc4)cc3)C2)CC1)[C@H]1CCC[C@@H]1OC(=O)N1CCC1 (mixture of isomers) [compound 221, rac-(1S,2R)-2-(cyano(phenyl)(1-((1-(4-(pyridin-4-ylsulfonyl)phenyl)azetidin-3-yl)methyl)piperidin-4-yl)methyl)cyclopentyl azetidine-1-carboxylate]
  IC50: 75 nM

## N#CC(c1ccccc1)(C1CCN(CC2CN(c3ccc(S(=O)(=O)c4ccncc4)cc3)C2)CC1)[C@@H]1CCC[C@H]1OC(=O)N1CCC1 (mixture of isomers) [compound 222, rac-(1R,2S)-2-(cyano(phenyl)(1-((1-(4-(pyridin-4-ylsulfonyl)phenyl)azetidin-3-yl)methyl)piperidin-4-yl)methyl)cyclopentyl azetidine-1-carboxylate]
  IC50: 2000 nM

## N#CC(c1ccccc1)(C1CCN(CC2CN(c3ccc(S(=O)(=O)c4ccccc4)cc3)C2)CC1)[C@@H]1CCC[C@H]1OC(N)=O (mixture of isomers) [compound 224, rac-(1R,2S)-2-(cyano(phenyl)(1-((1-(4-(phenylsulfonyl)phenyl)azetidin-3-yl)methyl)piperidin-4-yl)methyl)cyclopentyl carbamate]
  IC50: 331 nM

## CNC(=O)O[C@H]1CCC[C@@H]1C(C#N)(c1ccccc1)C1CCN(CC2CN(c3ccc(S(=O)(=O)C4CC4)cc3)C2)CC1 (mixture of isomers) [compound 226, rac-(1S,2R)-2-(cyano(1-((1-(4-(cyclopropylsulfonyl)phenyl)azetidin-3-yl)methyl)piperidin-4-yl)(phenyl)methyl)cyclopentyl methylcarbamate]
  IC50: 14 nM

## CNC(=O)O[C@@H]1CCC[C@H]1C(C#N)(c1ccccc1)C1CCN(CC2CN(c3ccc(S(=O)(=O)C4CC4)cc3)C2)CC1 (mixture of isomers) [compound 227, rac-(1R,2S)-2-(cyano(1-((1-(4-(cyclopropylsulfonyl)phenyl)azetidin-3-yl)methyl)piperidin-4-yl)(phenyl)methyl)cyclopentyl methylcarbamate]
  IC50: 498 nM

## CNC(=O)O[C@@H]1CCC[C@H]1C(C#N)(c1ccccc1)C1CCN(CC2CN(c3ccc(S(=O)(=O)c4nn(C)cc4Br)cc3)C2)CC1 (mixture of isomers) [compound 229, rac-(1R,2S)-2-((1-((1-(4-((4-bromo-1-methyl-1H-pyrazol-3-yl)sulfonyl)phenyl)azetidin-3-yl)methyl)piperidin-4-yl)(cyano)(phenyl)methyl) cyclopentyl methylcarbamate]
  IC50: 160 nM

## CNC(=O)O[C@@H]1CCC[C@H]1C(C#N)(c1ccccc1)C1CCN(CC2CN(c3ccc(S(=O)(=O)c4ccn(C)n4)cc3)C2)CC1 (mixture of isomers) [compound 231]
  IC50: 68 nM

## CNC(=O)O[C@@H]1CCC[C@H]1C(C#N)(c1ccccc1)C1CCN(CCCOc2ccc(C#N)cc2)CC1 (mixture of isomers) [compound 233, rac-(1R,2S)-2-(cyano(1-(3-(4-cyanophenoxy)propyl)piperidin-4-yl)(phenyl)methyl)cyclopentyl methylcarbamate]
  IC50: 178 nM

## CNC(=O)O[C@@H]1CCC[C@H]1C(C#N)(c1ccccc1)C1CCN(C2CCN(c3ccc(S(=O)(=O)c4ccccc4)cc3)CC2)CC1 (mixture of isomers) [compound 235, rac-(1R,2S)-2-(cyano(phenyl)(1′-(4-(phenylsulfonyl)phenyl)-[1,4′-bipiperidin]-4-yl)methyl)cyclopentyl methylcarbamate]
  IC50: 6200 nM

## CNC(=O)O[C@H]1CCC[C@@H]1C(Cn1ccnc1)(c1ccccc1)C1CCN(CC2CN(c3ccc(S(=O)(=O)c4ccccc4)cc3)C2)CC1 (mixture of isomers) [compound 236, rac-(1S,2R)-2-(2-(1H-imidazol-1-yl)-1-phenyl-1-(1-((1-(4-(phenylsulfonyl)phenyl)azetidin-3-yl)methyl)piperidin-4-yl)ethyl)cyclopentyl methylcarbamate]
  IC50: 12 nM

## CNC(=O)O[C@@H]1CCC[C@H]1C(Cn1ccnc1)(c1ccccc1)C1CCN(CC2CN(c3ccc(S(=O)(=O)c4ccccc4)cc3)C2)CC1 (mixture of isomers) [compound 237, rac-(1R,2S)-2-(2-(1H-imidazol-1-yl)-1-phenyl-1-(1-((1-(4-(phenylsulfonyl)phenyl)azetidin-3-yl)methyl)piperidin-4-yl)ethyl)cyclopentyl methylcarbamate]
  IC50: 42 nM

## CNC(=O)O[C@@H]1CCC[C@H]1C(Cn1ccnc1)(c1ccccc1)C1CCN(CC2CN(c3ccc(S(=O)(=O)c4cnn(C)c4)cc3)C2)CC1 (mixture of isomers) [compound 239, rac-(1R,2S)-2-(2-(1H-imidazol-1-yl)-1-(1-((1-(4-((1-methyl-1H-pyrazol-4-yl)sulfonyl)phenyl)azetidin-3-yl)methyl)piperidin-4-yl)-1-phenethyl)cyclopentyl methylcarbamate]
  IC50: 46 nM

## CNC(=O)O[C@@H]1CCC[C@H]1C(C#N)(c1ccccc1)C1CCN(CC2CN(c3ccc(S(=O)(=O)c4cnn(C)c4)cc3)C2)CC1 (mixture of isomers) [compound 241, rac-(1R,2S)-2-(cyano(1-((1-(4-((1-methyl-1H-pyrazol-4-yl)sulfonyl)phenyl)azetidin-3-yl)methyl)piperidin-4-yl)(phenyl)methyl)cyclopentyl methylcarbamate]
  IC50: 849 nM

## CS(=O)(=O)CO[C@H]1CCC[C@@H]1C(C#N)(c1ccccc1)C1CCN(CC2CN(c3ccc(S(=O)(=O)c4ccncc4)cc3)C2)CC1 (mixture of isomers) [compound 253, rac-2-((1R,2S)-2-((methylsulfonyl)methoxy)cyclopentyl)-2-phenyl-2-(1-((1-(4-(pyridin-4-ylsulfonyl)phenyl)azetidin-3-yl)methyl)piperidin-4-yl)acetonitrile]
  IC50: 14400 nM

## CS(=O)(=O)CO[C@@H]1CCC[C@H]1C(C#N)(c1ccccc1)C1CCN(CC2CN(c3ccc(S(=O)(=O)c4ccncc4)cc3)C2)CC1 (mixture of isomers) [compound 254, rac-2-((1S,2R)-2-((methylsulfonyl)methoxy)cyclopentyl)-2-phenyl-2-(1-((1-(4-(pyridin-4-ylsulfonyl)phenyl)azetidin-3-yl)methyl)piperidin-4-yl)acetonitrile]
  IC50: 23200 nM
